The data set is described as follows: gradient 5% acetonitrile 3 min, to 50% in 2 min, to 85% in 15 min, held 3 min, 100 µL/min. The settings on record: column: Zorbax Extend-C18 2.1 x 50 mm; eluents: water / acetonitrile, 0.1% formic acid. Summed up: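 Retention times of pure standards were taken from adduct peaks that were selected by computer and manually inspected. Over 3 months, mixtures of ~100 molecules were run by HPLC–quadrupole time-of-flight mass spectrometry in positive and negative ionization mode. The Zorbax Extend-C18 column (2.1 × 50 mm, 1.8 μm) ran at 100 μL/min in water and acetonitrile, each containing 0.1% formic acid, with 40 μL dead volume and 900 μL dwell volume.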
`CCn1ccc2oc(C)c(C(=O)N3CCN(c4cccc(Cl)c4)CC3)c2c1=O`: the RP-LC retention time came out at 896 s.
In the case of `CCCCC(=O)N1CCN(c2ccc(=O)n(-c3ccc(Cl)cc3)n2)CC1` it was 829 s; in that of `Cc1c(Cl)ccc2c(=O)c3c([nH]c12)CCN(CC(=O)Nc1cc(F)cc(F)c1)C3`, 664 s; in that of `O=C(c1cc2ccccc2[nH]1)N1CCOCC1`, 713 s.
As for `CCn1cc(S(=O)(=O)N2C[C@@H](COC)[C@H](C(=O)NC)C2)cn1`, the figure is 603 s; as for `CC(C)NC(=O)CCn1c(=O)c2cc(Cl)ccc2n2c(=O)n(Cc3ccccc3)nc12`, 856 s; as for `CCN1c2ccc(C)cc2C(=O)NC12CCN(C(=O)c1ccc(C)cc1C)CC2`, 902 s.
As for `COc1ccc(OC)c(Nc2c(-c3ccc4c(c3)OCO4)nc3cnccn23)c1`, the figure is 829 s.
The compound `COc1ccc(N(Cc2nc3nc(C)c(Cl)c(C)n3n2)C(=O)c2ccco2)cc1` showed an RP-LC retention time of 824 s.
In the case of `COc1ccc(-c2noc(-c3nc(-c4cc(OC)c(OC)c(OC)c4)no3)n2)cc1` it was 1080 s; in that of `COc1ccccc1Cn1cc(C(=O)c2ccccc2)c(=O)c2cc3c(cc21)OCCO3`, 815 s.
In the case of `Cc1cc2nc(C)c(=O)n(CC(=O)NCCc3c[nH]c4ccccc34)c2cc1C` it was 814 s; in that of `CC(C)NC(=O)C1CCc2sc(C(=O)N3CCCC3)cc2C1` (stereo not drawn), 696 s; in that of `CCC1CCCCN1C(=O)c1cnc2nc(C)ccc2c1Nc1ccc(C)cc1C` (stereo not drawn), 706 s.
In the case of `Cc1cccc(-n2c(N3CCCC(C(=O)NCc4ccccc4Cl)C3)nc3ccsc3c2=O)c1` (stereo not drawn) it was 956 s.
Regarding `CCC(C)NS(=O)(=O)c1cc(-c2nnc(-c3ccc(OC)c(OC)c3)o2)ccc1C` (stereo not drawn), the RP-LC retention time was found to be 938 s.
As for `Cc1nc(-c2ccccc2Cl)sc1C(=O)N1CCN(c2ccccn2)CC1`, the figure is 661 s; as for `CCCCNC(=O)CSc1nnc2c3cc(-c4ccccc4)nn3ccn12`, 780 s.
In the case of `O=C(NCc1cc(F)cc(F)c1)C1CCCN(c2nccnc2Sc2ccccc2)C1` (stereo not drawn) it was 1030 s.
As for `Cc1cc(N2CCN(C)CC2)n2nc(-c3ccc(Cl)cc3)nc2n1`, the figure is 658 s; as for `CC(=O)Nc1nc2ccc(CC(=O)Nc3ccc(F)cc3)cc2s1`, 714 s; as for `COc1ccccc1OCC(=O)NCc1ccsc1`, 747 s.
`Cc1nc(C)c(-c2nnc(NC(=O)c3ccc(=O)[nH]n3)o2)s1` yielded an RP-LC retention time of 578 s.
As for `Cc1ccccc1-c1nsc(SCC(=O)NCc2ccco2)n1`, the figure is 892 s; as for `CCOc1ccccc1C(=O)NC1CCN(c2cc(-c3ccc(Cl)cc3)[nH]n2)C1` (stereo not drawn), 879 s.
In the case of `COc1cccc(-c2ccc(=O)n(CCc3nc(-c4cccc(Br)c4)no3)n2)c1` it was 1080 s.
As for `Cc1cc(-c2nnc(NC(=O)C3CCCN(S(=O)(=O)c4cccs4)C3)o2)nn1C` (stereo not drawn), the figure is 696 s; as for `CCOC(=O)c1sc(NC(=O)c2cc(=O)c3ccccc3o2)nc1-c1ccccc1`, 1010 s; as for `Cc1cc2c(=O)n(CC(=O)Nc3ccc(C(F)(F)F)cc3)ccc2s1`, 706 s.
`CN(C)c1cccc(C(=O)N2CCN(C(=O)c3nnn4c3COC(c3ccc(Cl)cc3)C4)CC2)c1` (stereo not drawn) had an RP-LC retention time of 881 s.
In the case of `O=C(c1n[nH]c2ccccc12)N1CCC[C@H]1c1nc(-c2ccccc2)n[nH]1` it was 683 s; in that of `CC(=O)c1cccc(NC(=O)Cc2csc3nc(-c4ccccc4)cn23)c1`, 729 s.
As for `CCOc1cccc(C2c3[nH]c4ccccc4c3CCN2C(=O)c2ccco2)c1` (stereo not drawn), the figure is 1130 s; as for `CN(C)c1cc(N2CCCC(NC(=O)c3cccn3C)C2)ncn1` (stereo not drawn), 571 s.
As for `COc1ccc(CCNC(=O)Nc2nnc(-c3ccc(F)cc3F)o2)cc1`, the figure is 788 s.
Take `O=C(NC1CCCC1)C1CCN(S(=O)(=O)c2cc(C(=O)N3CCOCC3)cs2)CC1`: the RP-LC retention time is 682 s.
As for `Cc1cnc(C(=O)N2CCCC(c3nnc4n3CCN(C(=O)C3CC3)C4)C2)cn1` (stereo not drawn), the figure is 584 s; as for `Cc1cc(=O)n(CC(=O)Nc2ccccc2C#N)cn1`, 571 s.
For the compound `CCn1nc(C)c(CCN(C)C(=O)Cn2nc3n(c2=O)CCC(N)CC3)c1C` (stereo not drawn), the RP-LC retention time was 515 s.
As for `O=S(=O)(CCc1ccccc1)N1CCN(c2ccc3nncn3n2)CC1`, the figure is 664 s; as for `COc1ccc(C2C(C(=O)NCCN3CCOCC3)c3cc(OC)c(OC)cc3C(=O)N2C)cc1` (stereo not drawn), 610 s.
In the case of `Cc1nc(-c2csc(S(=O)(=O)N3CCCC(C(=O)NCCc4cccs4)C3)c2)no1` (stereo not drawn) it was 872 s; in that of `NC(=O)C1CCN(c2nc3ccccc3nc2S(=O)(=O)Cc2ccc(Cl)cc2)CC1`, 876 s; in that of `CC1=NS(=O)(=O)N(Cc2ccccc2)C=C1C(=O)OCc1cc(F)ccc1F`, 1080 s.
In the case of `O=C(Nc1ccc(F)cc1)C1CCN(S(=O)(=O)c2cc(-c3noc(C4CC4)n3)cs2)CC1` it was 1010 s; in that of `CCn1c(=O)c2cc(C(=O)NCc3cn[nH]c3C)nn2c2ccccc21`, 781 s; in that of `COc1ccc(S(=O)(=O)Nc2ccc3oc(-c4ccccc4OC)cc(=O)c3c2)cc1`, 686 s.
For the compound `CSc1ccc(Nc2ncccc2S(=O)(=O)Nc2ccc(F)cc2)cc1`, the RP-LC retention time was 1100 s.
As for `COc1ccc(NC(=O)Cn2nc3cc(C)nc(Nc4cc(C)cc(C)c4)n3c2=O)cc1`, the figure is 869 s; as for `COC(=O)c1cc2ccsc2n1CC(=O)Nc1ccc(F)c(Cl)c1`, 1010 s; as for `Cc1cccc(S(=O)(=O)N2CC3CN(C(=O)c4cnccn4)CC(C2)O3)c1`, 688 s.
In the case of `O=C(Nc1cccc2ccc(-n3ccnc3)nc12)c1ccsc1` it was 615 s.
`Cc1cccc2nc(-c3ccc(N4CCOCC4)cc3)c(Nc3ccc4c(c3)OCO4)n12` had an RP-LC retention time of 676 s.
In the case of `O=C1C(N2CCCN(S(=O)(=O)c3cc(F)cc(F)c3)CC2)CCN1CC1CC1` (stereo not drawn) it was 661 s.
As for `CCOC(=O)c1cnc2nc(-c3ccccc3)nn2c1C`, the figure is 917 s; as for `CCCCNC(=O)CCC(=O)N1CCCn2nc(-c3cn(C)c4ccccc34)cc21`, 778 s; as for `COc1ccc(OCc2noc(CNC(=O)c3cnn(-c4ccccc4)c3C)n2)cc1`, 799 s.
`CC1(C)SC2C(NC(=O)[C@H](NC(=O)N3CCNC3=O)c3ccccc3)C(=O)N2C1C(=O)O` (stereo partly drawn) displayed an RP-LC retention time of 709 s.
